Experimental data taken from paper PMC5717164 (Nature Communications, 2017).

Legend:
[1] = molecular target: T1, D-alanine:D-alanine ligase (EcDdlB) (Escherichia coli, UniProt P07862); assay: co-crystal structures at […] Å (with D-Ala-D-Ala) and […] Å (with DCSP, 4C5A); assay type: binding
T1 construct: gene ddlB; all 306 residues of the native protein, with amino-terminal histidine-tag

[2] = molecular target: T1, D-alanine:D-alanine ligase (EcDdlB); assay: co-crystal structure at […] Å (formed in situ from ATP and DCS); assay type: binding

Compound | co-crystal structures at 1.5 Å (with D-Ala-D-Ala) and 1.65 Å (with DCSP, 4C5A) [1] | co-crystal structure at 1.65 Å (formed in situ from ATP and DCS) [2]
Nc1ncnc2c1ncn2[C@@H]1O[C@H](COP(=O)(O)OP(=O)(O)O)[C@@H](O)[C@H]1O [ADP] | The adenine ring of the ATP or ADP ligand lies in a pocket mainly composed of hydrophobic and aromatic residues | 
NC1CON=C1OP(=O)(O)O [DCSP, phosphorylated D-cycloserine] |  | phosphorylated DCS was bound in the high-affinity D-alanine binding site (D-Ala1)
